Source: ChEMBL document CHEMBL1132462, “Molecular modeling studies on G-quadruplex complexes of telomerase inhibitors: structure-activity relationships” (J Med Chem, 1999)

Biological target: Telomerase reverse transcriptase (Homo sapiens, UniProt O14746)
Assay: Inhibitory activity against Telomerase evaluated by TRAP Assay studies.

Telomerase reverse transcriptase, sequence (O14746 whole entry): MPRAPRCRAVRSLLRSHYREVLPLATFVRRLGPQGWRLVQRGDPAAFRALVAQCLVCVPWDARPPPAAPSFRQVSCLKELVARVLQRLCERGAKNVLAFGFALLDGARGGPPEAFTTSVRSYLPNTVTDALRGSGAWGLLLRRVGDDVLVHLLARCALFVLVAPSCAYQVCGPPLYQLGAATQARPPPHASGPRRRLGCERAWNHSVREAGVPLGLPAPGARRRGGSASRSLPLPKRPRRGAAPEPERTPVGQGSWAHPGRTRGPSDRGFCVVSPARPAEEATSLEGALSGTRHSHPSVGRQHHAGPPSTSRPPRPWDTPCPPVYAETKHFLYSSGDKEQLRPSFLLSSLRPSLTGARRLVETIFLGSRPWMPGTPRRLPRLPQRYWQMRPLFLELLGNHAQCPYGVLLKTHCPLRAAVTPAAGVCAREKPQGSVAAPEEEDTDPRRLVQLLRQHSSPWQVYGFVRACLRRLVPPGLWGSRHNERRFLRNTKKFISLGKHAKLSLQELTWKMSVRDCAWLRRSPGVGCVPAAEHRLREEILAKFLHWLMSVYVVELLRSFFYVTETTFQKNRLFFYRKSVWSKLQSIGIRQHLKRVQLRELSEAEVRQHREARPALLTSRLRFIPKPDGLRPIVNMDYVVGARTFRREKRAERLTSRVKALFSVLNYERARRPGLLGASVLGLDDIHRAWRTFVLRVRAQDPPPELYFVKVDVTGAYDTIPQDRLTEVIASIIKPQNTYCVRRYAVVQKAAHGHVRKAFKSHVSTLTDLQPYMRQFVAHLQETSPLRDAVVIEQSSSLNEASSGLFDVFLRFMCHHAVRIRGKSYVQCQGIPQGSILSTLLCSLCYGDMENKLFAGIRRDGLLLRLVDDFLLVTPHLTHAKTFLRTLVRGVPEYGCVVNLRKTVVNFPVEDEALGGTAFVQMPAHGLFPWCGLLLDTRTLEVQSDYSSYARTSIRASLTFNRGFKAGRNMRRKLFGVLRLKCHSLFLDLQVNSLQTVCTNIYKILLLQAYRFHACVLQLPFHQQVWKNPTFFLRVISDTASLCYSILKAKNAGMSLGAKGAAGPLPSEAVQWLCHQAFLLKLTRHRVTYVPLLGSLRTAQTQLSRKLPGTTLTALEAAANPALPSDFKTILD

SMILES | IC50
O=C(CCN1CCCCCC1)Nc1ccc2c(c1)C(=O)c1ccc(NC(=O)CCN3CCCCCC3)cc1C2=O | 13 µM
CC1(C)CC2CC(C)(CN2CCC(=O)Nc2ccc3c(c2)C(=O)c2ccc(NC(=O)CCN4CC5(C)CC4CC(C)(C)C5)cc2C3=O)C1 | > 50 µM
O=C(CCN1CCCCCCC1)Nc1ccc2c(c1)C(=O)c1ccc(NC(=O)CCN3CCCCCCC3)cc1C2=O | > 50 µM
